These results are taken from patent US7312188B2, “Peptide derivatives having β-secretase inhibitory activity” (priority 2003, dated 2007).

The target in the test is T1, recombinant human BACE-1 (rhBACE-1) (Homo sapiens, UniProt P56817).
T1 construct: expressed as only an extracellular region (amino acid 1-460 residues) of recombinant human β-secretase; His tag (C); purchased R&D systems (Minneapolis, Minn.); host or cells: murine myeloma cell line NS0
The test can be described thus: BACE1 inhibitory activity, reverse phase HPLC quantitation of N-terminal fragment of fluorogenic substrate. It counts as biochemical. The note with it: 1 μL of inhibitor solution in DMSO (100 μM) in 50 μL reaction; MES buffer pH 5.0; 37° C., 60 minutes. An excerpt: Experiment Regarding Measurement of BACE1 Inhibitory Activity
Enzyme Used in Measurement
As an enzyme having β-secretase activity, recombinant human BACE-1 (rhBACE-1) purchased from R&D systems (Minneapolis, Minn.) was used. rhBACE-1 is expressed as only an extracellular region (amino acid 1-460 residues) of recombinant human β-secretase, with a His tag at its carboxyl terminal in murine myeloma cell line, NS0. Purified secreted rhBACE1 is a mixture of a pro entity (about 75 kDa) and a mature entity (about 72 kDa).
Assessment of Enzyme Inhibitory Activity
Enzyme inhibitory activity of an inhibitor was assessed by quantitating an N-terminal fragment produced aftercleaving the substrate with BACE1 by reverse HPLC using (7-methoxycoumarin-4-yl)acetyl-[…]2,4-dinitrophenyl)-Arg-Arg-NH2 purchased from Peptide Institute (Osaka, Japan) as a substrate for BACE1. To 40 μL of 62.5 mM 2-(N-morpholino)ethansulfonic acid (MES)-CH3COOH—NaOH buffer (pH 5.0), were added 1 μL of a solution of an inhibitor diluted with DMSO (100 μM), 4 μL of rhBACE-1 (6.25 ng/μL), and 5 μL of an aqueous solution (50% DMSO) of 250 μM substrate (7-methoxycoumarin-4-yl)acetyl-[…]2,4-dinitrophenyl)-Arg-Arg-NH2 to initiate an enzyme reaction. After incubation at 37° C. for 60 minutes, 20 μL of 20% trichloroacetic acid was added to stop the reaction. And, inhibition % was calculated by measuring a fluorescent intensity of the N-terminal fragment (Ex, 328 nm; Em, 393 nm) using reverse phase HPLC (linear gradient of MeCN in aqueous TFA; flow rate, 1.0 mL/min).
BACE1 Inhibitory Activity
Enzyme inhibitory activity of an inhibitor was assessed by quantitating a N-terminal fragment produced after cleavage of a substrate with BACE1 by reverse phase HPLC using (7-methoxycoumarin-4-yl)acetyl-[…]2,4-dinitrophenyl)-Arg-Arg-NH2 purchased from Peptide Institute (Osaka, Japan) as a substrate for BACE1. Recombinant human BACE-1 purchased from R&D systems (Minneapolis, Minn.) was used. To 40 μL of 62.5 mM 2-(N-morpholino)ethansulfonic acid (MES)-CH3COOH—NaOH buffer (pH 5.0), were added 1 μL of a solution of an inhibitor diluted with DMSO (100 μM), 4 μL of BACE1 (6.25 ng/μL), and 5 μL of an aqueous solution (50% DMSO) of 250 μM substrate (7-methoxycoumarin-4-yl)acetyl-[…]2,4-dinitrophenyl)-Arg-Arg-NH2 to initiate an enzyme reaction. After incubation at 37° C. for 60 minutes, 20 μL of 20% trichloroacetic acid was added to stop a reaction. Inhibition % was calculated by measuring a fluorescent intensity of the N-terminal fragment (Ex, 328 nm; Em, 393 nm) using reverse phase HPLC (linear gradient of MeCN in aqueous TFA; flow rate, 1.0 mL/min).

Numbered stars: 1 amine (or outer) side, 2 acyl side, 3 side chain; on linkers, the order of the positions; unused ones are H or OH. Square brackets hold non-standard residues; d marks the D form. Peptide text beside a SMILES is read from it. * marks the point of attachment. ξ: configuration not given here. β3hPhe(2R-OH) = O=C([C@H](O)[C@H](Cc1ccccc1)N[*:1])[*:2]; X2 = O=C([C@H](O)[C@H](CSc1ccccc1)N[*:1])[*:2]; Oxalyl = O=C(C(=O)[*:2])[*:1]; Tle = CC(C)(C)[C@H](N)C(=O)O; Orn = NCCC[C@H](N)C(=O)O; Dap = NC[C@H](N)C(=O)O; ξPip = O=C(O)C1CCCCN1; X4 = CCOC(=O)C(=O)*

T1 sequence (P56817 22-460 limits assumed): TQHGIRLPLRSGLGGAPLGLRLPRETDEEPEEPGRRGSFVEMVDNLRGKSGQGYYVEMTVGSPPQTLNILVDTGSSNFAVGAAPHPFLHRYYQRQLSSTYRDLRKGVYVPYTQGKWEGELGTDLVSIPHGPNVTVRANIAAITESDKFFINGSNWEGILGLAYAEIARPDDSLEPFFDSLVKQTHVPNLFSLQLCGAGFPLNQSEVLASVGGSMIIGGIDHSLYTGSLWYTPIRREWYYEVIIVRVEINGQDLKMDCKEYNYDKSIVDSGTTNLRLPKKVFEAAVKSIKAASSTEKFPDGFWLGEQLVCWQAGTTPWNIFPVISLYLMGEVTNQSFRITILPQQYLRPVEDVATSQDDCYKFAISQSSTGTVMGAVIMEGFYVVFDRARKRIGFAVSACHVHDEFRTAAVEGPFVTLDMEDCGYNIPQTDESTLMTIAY

In the case of `CC(C)[C@H](NC(=O)[C@@H](N)CCC(=O)O)C(=O)N[C@@H](Cc1ccc(Cl)cc1)C(=O)N[C@@H](Cc1ccccc1)[C@@H](O)C(=O)Nc1cccc(C(=O)O)c1` [Example 168], the inhibition at 2 µM was 60%.

Take `CC(C)C[C@H](NC(=O)[C@@H](NC(=O)[C@@H](N)CCC(=O)O)C(C)C)C(=O)N[C@@H](Cc1ccccc1)[C@@H](O)C(=O)Nc1cc(C(N)=O)cc(C(=O)O)c1` [Example 179]: the inhibition at 2 µM was found to be 83.7%.

For the compound “H-Glu-Val-Leu-Pns-Ala-Phe-Glu-Phe-OH (H-EVL[β3hPhe(2R-OH)]AFEF-OH; SMILES CC(C)C[C@H](NC(=O)[C@@H](NC(=O)[C@@H](N)CCC(=O)O)C(C)C)C(=O)N[C@@H](Cc1ccccc1)[C@@H](O)C(=O)N[C@@H](C)C(=O)N[C@@H](Cc1ccccc1)C(=O)N[C@@H](CCC(=O)O)C(=O)N[C@@H](Cc1ccccc1)C(=O)O) [Example 26]”, the “Activity (BACE1 inhibition %)” value was 60.23%.

Consider `Cc1cccc(C(=O)NC[C@H](N)C(=O)N[C@H](C(=O)N[C@@H](CC(C)C)C(=O)N[C@@H](Cc2ccccc2)[C@@H](O)C(=O)Nc2cccc(C(=O)O)c2)C(C)C)c1O` [Example 147], for which the inhibition at 2 µM amounted to 59.5%.

With `CC(C)C[C@H](NC(=O)[C@@H](NC(=O)[C@@H](N)CCCNC(=O)C(=O)O)C(C)C)C(=O)N[C@@H](Cc1ccccc1)[C@@H](O)C(=O)N[C@@H](CC(=O)O)C(=O)N[C@@H](C)C(=O)N[C@@H](CCC(=O)O)C(=O)O` [Example 101] (H-[Orn](Oxalyl)VL[β3hPhe(2R-OH)]DAE-OH), the inhibition at 2 µM was determined as 56.1%.

Take `CC(C)C[C@H](NC(=O)[C@@H](NC(=O)[C@@H](N)CCC(=O)O)C(C)C)C(=O)N[C@@H](Cc1ccccc1)[C@@H](O)C(=O)Nc1cc(Cl)cc(Cl)c1` [Example 156]: the inhibition at 100 µM (stock) turned out to be 78.3%.

In the case of `CC(C)C[C@H](NC(=O)[C@@H](NC(=O)[C@@H](N)CCC(=O)O)C(C)C)C(=O)N[C@@H](Cc1ccccc1)[C@@H](O)C(=O)Nc1ccc(Cl)c(C(=O)O)c1` [Example 83], the inhibition at 2 µM was 80.1%.

On to `CC(C)C[C@H](NC(=O)[C@@H](NC(=O)[C@@H](N)CCC(=O)O)C(C)C)C(=O)N[C@@H](Cc1ccccc1)[C@@H](O)C(=O)N[C@@H](CC(=O)O)C(=O)N[C@H](C(=O)N[C@@H](CCC(=O)O)C(=O)N[C@@H](Cc1ccccc1)C(=O)O)C(C)(C)C` [Example 86] (H-EVL[β3hPhe(2R-OH)]D[Tle]EF-OH), for which the inhibition at 2 µM is 75%.

For `COC(=O)c1cccc(C(=O)NC[C@H](N)C(=O)N[C@H](C(=O)N[C@@H](CC(C)C)C(=O)N[C@@H](Cc2ccccc2)[C@@H](O)C(=O)Nc2cccc(C(=O)O)c2)C(C)C)c1` [Example 183], the inhibition at 100 µM (stock) came to 52.1%.

Turning to `CC(C)C[C@H](NC(=O)[C@@H](NC(=O)[C@@H](N)CCC(=O)O)C(C)C)C(=O)N[C@@H](Cc1ccccc1)[C@@H](O)C(=O)Nc1cccc(C(=O)OCC(F)(F)F)c1` [Example 138], the inhibition at 2 µM was 59.6%.

For the compound `CC(C)C[C@H](NC(=O)[C@@H](NC(=O)[C@@H](N)CNC(=O)c1ccc(O)cc1)C(C)C)C(=O)N[C@@H](Cc1ccccc1)[C@@H](O)C(=O)Nc1cccc(C(=O)O)c1` [Example 154], the inhibition at 2 µM came out at 69.9%.

For the compound `CC(C)C[C@H](NC(=O)[C@@H](NC(=O)[C@@H](N)CCC(=O)O)C(C)C)C(=O)N[C@@H](Cc1ccccc1)[C@@H](O)C(=O)Nc1cc(Br)c(OCC(=O)O)c(Br)c1` [Example 184], the inhibition at 100 µM (stock) came out at 88.1%.

Regarding `CC(C)C[C@H](NC(=O)[C@@H](NC(=O)[C@@H](N)CNC(=O)c1cc(O)ccc1O)C(C)C)C(=O)N[C@@H](Cc1ccccc1)[C@@H](O)C(=O)Nc1cccc(-c2nnn[nH]2)c1` [Example 190], the inhibition at 100 µM (stock) was found to be 99.3%.

With `CC(C)C[C@H](NC(=O)[C@@H](NC(=O)[C@@H](N)CNC(=O)c1[nH]c(=O)[nH]c(=O)c1F)C(C)C)C(=O)N[C@@H](Cc1ccccc1)[C@@H](O)C(=O)Nc1cccc(-c2nnn[nH]2)c1` [Example 187], the inhibition at 100 µM (stock) worked out at 100%.

With `CC(C)C[C@H](NC(=O)[C@@H](NC(=O)[C@@H](N)CNC(=O)c1ccc(O)cc1O)C(C)C)C(=O)N[C@@H](Cc1ccccc1)[C@@H](O)C(=O)Nc1cccc(C(=O)O)c1` [Example 173], the inhibition at 100 µM (stock) amounted to 86.1%.

Take `CC(C)C[C@H](NC(=O)[C@@H](NC(=O)[C@@H](N)CNC(=O)c1ccc[nH]1)C(C)C)C(=O)N[C@@H](Cc1ccccc1)[C@@H](O)C(=O)Nc1cccc(C(=O)O)c1` [Example 143]: the inhibition at 2 µM was 69%.

As to `CC(C)[C@H](NC(=O)[C@@H](N)CCC(=O)O)C(=O)N[C@H](C(=O)N[C@@H](Cc1ccccc1)[C@@H](O)C(=O)Nc1cccc(C(=O)O)c1)c1ccccc1` [Example 164], the inhibition at 2 µM is 64.1%.

For `CC(C)C[C@H](NC(=O)[C@@H](NC(=O)[C@@H](N)CCC(=O)O)C(C)C)C(=O)N[C@@H](Cc1ccccc1)[C@@H](O)C(=O)Nc1cc(Cl)c(OCC(N)=O)c(Cl)c1` [Example 182], the inhibition at 100 µM (stock) is 75.7%.

For `CC(C)C[C@H](NC(=O)[C@@H](NC(=O)[C@@H](N)CCC(=O)O)C(C)C)C(=O)N[C@@H](Cc1ccccc1)[C@@H](O)C(=O)N[C@@H](CC(=O)O)C(=O)N1CCCCC1C(=O)O` (stereo partly drawn) [Example 88] (H-EVL[β3hPhe(2R-OH)]D[ξPip]-OH), the inhibition at 2 µM worked out at 70.4%.

`CC(C)C[C@H](NC(=O)[C@@H](NC(=O)[C@H](CN)NC(=O)C(=O)O)C(C)C)C(=O)N[C@@H](Cc1ccccc1)[C@@H](O)C(=O)Nc1cccc(C(=O)O)c1` [Example 77]: the inhibition at 2 µM was found to be 87.9%.

For the compound `CC(C)C[C@H](NC(=O)[C@@H](NC(=O)[C@@H](N)CNC(=O)c1cc(N)cc(C(=O)O)c1)C(C)C)C(=O)N[C@@H](CSc1ccccc1)[C@@H](O)C(=O)Nc1cccc(C(=O)O)c1` [Example 177], the inhibition at 2 µM is 98.5%.

As for `Cc1c(O)cccc1C(=O)NC[C@H](N)C(=O)N[C@H](C(=O)N[C@@H](CC(C)C)C(=O)N[C@@H](Cc1ccccc1)[C@@H](O)C(=O)Nc1cccc(C(=O)O)c1)C(C)C` [Example 145], the inhibition at 2 µM is 50.5%.

As for `CCOC(=O)C(=O)NC[C@H](N)C(=O)N[C@H](C(=O)N[C@@H](CC(C)C)C(=O)N[C@@H](Cc1ccccc1)[C@@H](O)C(=O)N[C@@H](CC(=O)O)C(=O)N[C@@H](C)C(=O)N[C@@H](CCC(=O)O)C(=O)O)C(C)C` [Example 95] (H-[Dap](X4)VL[β3hPhe(2R-OH)]DAE-OH), the inhibition at 2 µM was 61.7%.

As to H-Glu-Val-Leu-Pns-Asp-OH [Example 34], the “Activity (BACE1 inhibition %)” value was 63.71%.

As for `CC(C)C[C@H](NC(=O)[C@@H](NC(=O)[C@@H](N)CNC(=O)c1cc(=O)[nH]c(=O)[nH]1)C(C)C)C(=O)N[C@@H](Cc1ccccc1)[C@@H](O)C(=O)Nc1cccc(C(=O)O)c1` [Example 142], the inhibition at 2 µM stood at 89.8%.

For the compound `COc1cc(NC(=O)[C@H](O)[C@H](Cc2ccccc2)NC(=O)[C@H](CC(C)C)NC(=O)[C@@H](NC(=O)[C@@H](N)CCC(=O)O)C(C)C)cc(OC)c1` [Example 129], the inhibition at 2 µM is 61%.

Take `Cc1cc(NC(=O)[C@H](O)[C@H](Cc2ccccc2)NC(=O)[C@H](CC(C)C)NC(=O)[C@@H](NC(=O)[C@@H](N)CCC(=O)O)C(C)C)cc(C)c1OCC(=O)O` [Example 178]: the inhibition at 2 µM worked out at 73.4%.

`CC(C)[C@H](NC(=O)[C@@H](N)CNC(=O)C(=O)O)C(=O)N[C@@H](CC1CCCCC1)C(=O)N[C@@H](Cc1ccccc1)[C@@H](O)C(=O)Nc1cc(C(=O)O)cc(C(=O)O)c1` [Example 134]: the inhibition at 2 µM is 99.6%.

For `CC(C)C[C@H](NC(=O)[C@@H](NC(=O)C(N)CNC(=O)c1ccccc1O)C(C)C)C(=O)N[C@@H](Cc1ccccc1)[C@@H](O)C(=O)Nc1cccc(C(=O)O)c1` (stereo partly drawn) [Example 146], the inhibition at 100 µM (stock) is 74.7%.

Turning to `CC(C)C[C@H](NC(=O)[C@@H](NC(=O)[C@@H](N)CCC(=O)O)C(C)C)C(=O)N[C@@H](CSc1ccccc1)[C@@H](O)C(=O)N[C@@H](CC(=O)O)C(=O)O` [Example 90] (H-EVL[X2]D-OH), the inhibition at 2 µM came out at 69%.
